{"source": "paper PMC7617969", "about": "“Carboxylic Acid Bioisosteres Boost Nurr1 Agonist Selectivity” (Journal of medicinal chemistry, 2025)", "key": {"Nurr1": {"biological_target": "T1, Nurr1 (Homo sapiens, UniProt P43354)", "T1 construct": "expressed in transfected cells; host or cells: HEK293T", "T1 sequence (P43354 360-595 limits assumed)": "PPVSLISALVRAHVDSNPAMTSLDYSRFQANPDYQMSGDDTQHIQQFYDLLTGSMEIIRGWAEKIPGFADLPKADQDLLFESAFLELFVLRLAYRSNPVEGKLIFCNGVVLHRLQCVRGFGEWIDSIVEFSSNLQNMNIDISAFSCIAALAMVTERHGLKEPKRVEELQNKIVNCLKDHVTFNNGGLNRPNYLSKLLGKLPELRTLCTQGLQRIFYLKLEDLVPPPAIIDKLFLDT", "test": "Gal4-Nurr1 hybrid reporter gene assay", "type": "cell-based"}, "CAR": {"biological_target": "T2, CAR (Homo sapiens, UniProt Q14994)", "T2 construct": "expressed in transfected cells; host or cells: HEK293T", "T2 sequence (Q14994 109-352 limits assumed)": "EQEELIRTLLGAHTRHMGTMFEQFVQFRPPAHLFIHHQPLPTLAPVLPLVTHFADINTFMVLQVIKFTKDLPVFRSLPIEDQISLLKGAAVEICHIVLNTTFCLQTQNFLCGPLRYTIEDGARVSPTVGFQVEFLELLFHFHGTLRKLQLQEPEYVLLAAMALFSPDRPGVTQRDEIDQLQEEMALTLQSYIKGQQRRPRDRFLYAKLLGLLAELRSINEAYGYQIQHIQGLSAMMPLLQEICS", "test": "Gal4 hybrid reporter gene assay, selectivity panel", "type": "cell-based", "conditions": "1 µM; relative activation compared to reference agonists", "description": "(§1) NR modulation was determined in Gal4 hybrid reporter gene assays in HEK293T cells (German Collection of Microorganisms and Cell Culture GmbH, DSMZ) using pFR-Luc (Stratagene, La Jolla, CA, USA; reporter), pRL-SV40 (Promega, Madison, WI, USA; internal control) and pFA-CMV-hNR-LBD[47],[48] plasmids coding for the hinge region and ligand binding domain of the canonical isoform of the respective NR. Cells were cultured in Dulbecco’s modified Eagle’s medium (DMEM), high glucose supplemented with 10% fetal calf serum (FCS), sodium pyruvate (1 mM), penicillin (100 U/mL), and streptomycin (100 μg/mL) at 37°C and 5% CO2 and seeded in 96-well plates (3×10^4 cells/well). After 24 h, medium was changed to Opti-MEM without supplements and cells were transiently transfected using Lipofectamine LTX reagent (Invitrogen, Carlsbad, CA, USA) according to the manufacturer’s protocol. Five hours after transfection, cells were incubated with the test compounds in Opti-MEM supplemented with penicillin (100 U/mL), streptomycin (100 μg/mL) and 0.1% DMSO for 16 h before luciferase activity was measured using the Dual-Glo Luciferase Assay System (Promega) according to the manufacturer’s protocol on a Tecan Spark luminometer (Tecan Deutschland GmbH, Crailsheim, Germany). Firefly luminescence was divided by Renilla luminescence and multiplied by 1000 resulting in relative light units (RLU) to normalize for transfection efficiency and cell growth. Fold activation was obtained by dividing the mean RLU of test compound by the mean RLU of the untreated control. All samples were tested in at least three biologically independent experiments in duplicates. For dose-response curve fitting and calculation of EC50 values, the equation “[Agonist] vs. response -- Variable slope (four parameters)” was used in GraphPad Prism (version 7.00, GraphPad Software, La Jolla, CA, USA)."}, "PXR": {"biological_target": "T3, PXR (Homo sapiens, UniProt O75469)", "T3 construct": "expressed in transfected cells; host or cells: HEK293T", "T3 sequence (O75469 146-433)": "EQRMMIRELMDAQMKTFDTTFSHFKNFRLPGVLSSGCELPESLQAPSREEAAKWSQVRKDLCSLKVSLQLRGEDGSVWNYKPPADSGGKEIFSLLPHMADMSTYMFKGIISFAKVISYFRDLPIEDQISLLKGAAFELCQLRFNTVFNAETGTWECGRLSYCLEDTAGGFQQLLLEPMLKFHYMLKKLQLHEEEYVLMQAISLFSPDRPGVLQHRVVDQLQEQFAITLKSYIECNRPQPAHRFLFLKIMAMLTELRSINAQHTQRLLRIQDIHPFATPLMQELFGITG", "test": "Gal4 hybrid reporter gene assay, selectivity panel", "type": "cell-based", "conditions": "1 µM; relative activation compared to reference agonists", "description": "as §1"}, "FXR": {"biological_target": "T4, FXR (Homo sapiens, UniProt Q96RI1)", "T4 construct": "expressed in transfected cells; host or cells: HEK293T", "T4 sequence (Q96RI1 262-486 limits assumed)": "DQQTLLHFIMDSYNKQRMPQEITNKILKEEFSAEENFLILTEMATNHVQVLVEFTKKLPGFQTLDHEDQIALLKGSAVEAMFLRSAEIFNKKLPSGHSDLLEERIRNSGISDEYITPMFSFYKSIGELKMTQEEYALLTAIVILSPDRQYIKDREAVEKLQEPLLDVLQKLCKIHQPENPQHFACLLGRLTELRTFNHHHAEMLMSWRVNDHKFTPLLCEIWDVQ", "test": "Gal4 hybrid reporter gene assay, selectivity panel", "type": "cell-based", "conditions": "1 µM; relative activation compared to reference agonists", "description": "as §1"}, "VDR": {"biological_target": "T5, VDR (Homo sapiens, UniProt P11473)", "T5 construct": "expressed in transfected cells; host or cells: HEK293T", "T5 sequence (P11473 127-423 limits assumed)": "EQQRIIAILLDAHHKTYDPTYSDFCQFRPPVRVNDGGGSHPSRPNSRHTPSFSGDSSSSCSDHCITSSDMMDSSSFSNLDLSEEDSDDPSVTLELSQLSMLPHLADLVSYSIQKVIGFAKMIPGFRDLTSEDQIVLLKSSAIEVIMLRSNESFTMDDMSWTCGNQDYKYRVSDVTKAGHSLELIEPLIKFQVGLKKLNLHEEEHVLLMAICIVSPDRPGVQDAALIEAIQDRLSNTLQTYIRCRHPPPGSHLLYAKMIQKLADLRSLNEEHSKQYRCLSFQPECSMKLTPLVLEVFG", "test": "Gal4 hybrid reporter gene assay, selectivity panel", "type": "cell-based", "conditions": "1 µM; relative activation compared to reference agonists", "description": "as §1"}, "NOR1": {"biological_target": "T6, NOR1 (Homo sapiens, UniProt Q92570)", "T6 construct": "expressed in transfected cells; host or cells: HEK293T", "T6 sequence (Q92570 394-623 limits assumed)": "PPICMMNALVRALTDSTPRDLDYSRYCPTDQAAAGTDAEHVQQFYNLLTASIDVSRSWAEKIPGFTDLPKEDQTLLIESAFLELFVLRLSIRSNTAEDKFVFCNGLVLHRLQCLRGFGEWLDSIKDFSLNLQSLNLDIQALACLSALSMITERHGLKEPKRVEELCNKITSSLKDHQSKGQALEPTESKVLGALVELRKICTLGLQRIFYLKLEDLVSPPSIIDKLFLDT", "test": "Gal4-NOR1 hybrid reporter gene assay", "type": "cell-based", "description": "NR modulation was determined in Gal4 hybrid reporter gene assays in HEK293T cells (German Collection of Microorganisms and Cell Culture GmbH, DSMZ) using pFR-Luc (Stratagene, La Jolla, CA, USA; reporter), pRL-SV40 (Promega, Madison, WI, USA; internal control) and pFA-CMV-hNR-LBD[47],[48] plasmids coding for the hinge region and ligand binding domain of the canonical isoform of the respective NR. Cells were cultured in Dulbecco’s modified Eagle’s medium (DMEM), high glucose supplemented with 10% fetal calf serum (FCS), sodium pyruvate (1 mM), penicillin (100 U/mL), and streptomycin (100 μg/mL) at 37°C and 5% CO2 and seeded in 96-well plates (3×10^4 cells/well). […] Five hours after transfection, cells were incubated with the test compounds in Opti-MEM supplemented with penicillin (100 U/mL), streptomycin (100 μg/mL) and 0.1% DMSO for 16 h before luciferase activity was measured using the Dual-Glo Luciferase Assay System (Promega) according to the manufacturer’s protocol on a Tecan Spark luminometer (Tecan Deutschland GmbH, Crailsheim, Germany). Firefly luminescence was divided by Renilla luminescence and multiplied by 1000 resulting in relative light units (RLU) to normalize for transfection efficiency and cell growth. […]"}, "Nurr1 LBD homodimer": {"biological_target": "T7, Nurr1 LBD homodimer (Homo sapiens, UniProt P43354)", "T7 construct": "Biotinylated recombinant Nurr1 LBD protein and sGFP-Nurr1 LBD protein (FRET acceptor) were expressed and purified as described previously[28]; sGFP-Nurr1 LBD protein (FRET acceptor) were expressed and purified as described previously[28]; made in house", "T7 sequence (P43354 360-595 limits assumed)": "as the sequence (P43354 360-595 limits assumed) above", "test": "Nurr1 homodimerization assay (HTRF)", "type": "biochemical", "conditions": "Tb3+-cryptate labeled Nurr1 LBD and sGFP labeled Nurr1 LBD", "description": "Modulation of Nurr1 LBD homodimerization by 32 was studied in a homogenous time-resolved fluorescence resonance energy transfer (HTRF) based assay. Biotinylated recombinant Nurr1 LBD protein and sGFP-Nurr1 LBD protein (FRET acceptor) were expressed and purified as described previously. […] Free sGFP was added to keep the total GFP content stable at 0.5 μM. Assay solutions were prepared in HTRF assay buffer (25 mM HEPES pH 7.5, 10% (m/v) glycerol, 5 mM DTT) supplemented with 0.1% (w/v) CHAPS as well as 1% DMSO with 32 at fixed concentrations or DMSO alone as negative control (apo). The FRET donor complex formed from biotinylated Nurr1 LBD (final concentration 0.188 nM) and Tb-SA (0.375 nM) was kept constant while the concentration of sGFP-labeled protein was varied. Samples were equilibrated at RT for 2 h before fluorescence intensities (FI) after excitation at 340 nm were recorded at 520 nm for sGFP acceptor fluorescence and 620 nm for Tb-SA donor fluorescence on a Tecan SPARK plate reader (Tecan Group Ltd.). FI520 nm was divided by FI620 nm and multiplied with 10,000 to give a dimensionless HTRF signal."}, "RAR": {"test_system": "RAR", "test": "Gal4 hybrid reporter gene assay, selectivity panel", "type": "cell-based, human", "conditions": "1 µM; relative activation compared to reference agonists", "description": "as §1"}, "RXR": {"test_system": "RXR", "test": "Gal4 hybrid reporter gene assay, selectivity panel", "type": "cell-based, human", "conditions": "1 µM; relative activation compared to reference agonists", "description": "as §1"}, "THR": {"test_system": "THR", "test": "Gal4 hybrid reporter gene assay, selectivity panel", "type": "cell-based, human", "conditions": "1 µM; relative activation compared to reference agonists", "description": "as §1"}, "PPAR": {"test_system": "PPAR", "test": "Gal4 hybrid reporter gene assay, selectivity panel", "type": "cell-based, human", "conditions": "1 µM; relative activation compared to reference agonists", "description": "as §1"}}, "note": "Values joined by “and” are separate entries in the source; they are usually repeats but may differ in a detail not shown here. Equal entries are not always repeated."}
{"molecule": "COc1cccc(-c2ccc(NC(=O)C3=C(c4nn[nH]n4)CCC3)c(F)c2)c1", "note": "[compound 32, N-{3-Fluoro-3’-methoxy-[1,1'-biphenyl]-4-yl}-2-(2H-tetrazol-5-yl)cyclopent-1-ene-1-carboxamide]", "values": [{"measurement": "Nurr1 preference/selectivity over DHODH", "setting": "Nurr1", "result": "> 100", "unit": "fold"}, {"measurement": "EC50", "setting": "Nurr1; Gal4-Nurr1 hybrid reporter gene assay, HEK293T cells, mean ± S.E.M., n ≥ 3", "result": "90 ± 10", "unit": "nM"}, {"measurement": "max. activation (Nurr1)", "setting": "Nurr1; Gal4-Nurr1 hybrid reporter gene assay, fold activation vs untreated control", "result": "2.5 fold and 2.5±0.1 fold"}, {"measurement": "selectivity index DHODH/Nurr1", "setting": "Nurr1; IC50(DHODH) / EC50(Nurr1)", "result": 110}, {"measurement": "efficacy_NR4A2", "setting": "Nurr1; supplementary csv, max. activation in %", "result": 250, "unit": "%"}, {"measurement": "activity on CAR", "setting": "CAR", "result": "no activity"}, {"measurement": "activity on PXR", "setting": "PXR", "result": "no activity"}, {"measurement": "activity on FXR", "setting": "FXR", "result": "no activity"}, {"measurement": "activity on VDR", "setting": "VDR", "result": "no activity"}, {"measurement": "EC50", "setting": "NOR1", "result": "120 ± 10", "unit": "nM"}, {"measurement": "fold activation (NOR1)", "setting": "NOR1", "result": 1.8, "unit": "fold"}, {"measurement": "impact on Nurr1 dimer formation", "setting": "Nurr1 LBD homodimer", "result": "robustly diminished Nurr1 dimer formation"}, {"measurement": "activity on RAR", "setting": "RAR", "result": "no activity"}, {"measurement": "activity on RXR", "setting": "RXR", "result": "no activity"}, {"measurement": "activity on THR", "setting": "THR", "result": "no activity"}, {"measurement": "activity on PPAR", "setting": "PPAR", "result": "no activity"}]}
